Each block holds one compound with its values, some of them ahead of it.
Experiments:
EcSecA = biological target: T1, EcSecA (Escherichia coli, UniProt P10408); format: cell-based, E. coli; details: channel activity assay
T1 construct: made in house; host or cells: E. coli BL21(λDE3)/pT7-SecA

Cx26 = biological target: T2, Cx26 (Homo sapiens, UniProt P29033); assay: Cx26-proteoliposome hemi-channel activity in Xenopus oocytes; format: cell-based
T2 construct: His6 (C); made in house; host or cells: insect Sf9 cells, Bac-to-Bac baculovirus system
Protocol: Voltage Clamp was performed to measure the opening of protein conducting channels. When the channel on the cell membrane was opened, ions pass through the membrane and generate the ionic current. Thus, the recording of ionic current could also mean the opening of the protein conducting channel. Currents through the plasma membranes of oocytes were measured after the oocytes were injected with tested materials. The cells were place in a recording chamber (BSC-HT, Medical System, Greenvale, N.Y.) on a supporting nylon mesh, so that the perfusion solution bathed both the top and the bottom surface of the oocytes. Two electrode voltage clamping was performed using an amplifier (Geneclamp 500, Axon instruments Inc., Foster City, Calif.) at room temperature (23-25° C.). Cells were impaled using electrodes filled with 3 M KCl. One of the electrode (1.0-2.0 MΩ) used for voltage recording was connected to the HS-2×1 L headstage (input resistance, […]), and the other electrode (0.3-0.6 MΩ) was used for current recording to the HS-2×10 MG headstage (maximum current, 130 μA). The electrode was connected through a silver wire that was chloridized freshly for each experiment. Oocytes were used for further experiments only if their leak currents measured as the difference before and after a leak subtraction were less than 10% of the peak currents. The leak subtraction was not applied for data acquisition and analysis. Current records were low-pass filtered (Bessel, 4-pole filter, 3 db at 5 kHz), digitized at 5 kHz (12 but resolution), and analyzed using pClamp6 (Axon Instruments). The highest and lowest records were eliminated, and then the data are presented as mean±S.E. (standard error; n, number of oocytes). The expression rates for each injection sample were also collected as a record to determine the channel activity efficiency.
The E. coli liposomes treated with detergent were mixed with purified Cx26 protein at 10:1 ratio. Then the mixture was dialyzed in dialysis solution (0.25 M Sucrose, 0.4 M KOAC, 20 mM triethanolamine hydrocholoride pH7.5, 1.5 mM Mg(OAC)2 and 1 mM EDTA) at 4° C. for 15-18 hours to reconstitute the Cx-26-proteoliposomes.
10 ng reconstituted Cx26-proteoliposomes was mixed with or without EGTA or CaCl2 and injected into oocytes. The injected oocytes were incubated at 23° C. for 30 mins with 1.8 mM CaCl2 to suppress the bubbling. Recording bath solution was 90K (90 mM KCl, 5 mM HEPES, 3 mM MgCl2) without Ca^2+. For Ca^2+ inhibition, the CaCl2 was added in the extracellular recording bath solution during the recording.

[1] = biological target: T3, E. coli SecA translocation ATPase (Escherichia coli, UniProt P10408); assay: In vitro translocation ATPase inhibition kinetics; format: biochemical; details: requires SecYEG and precursors
T3 construct: made in house; host or cells: E. coli BL21(λDE3)/pT7-SecA (SecA); E. coli membranes supply SecYEG

[2] = biological target: Soluble SecA intrinsic ATPase (Escherichia coli, UniProt P10408); assay: Soluble SecA intrinsic ATPase inhibition kinetics; format: biochemical; details: data not shown
PaSecA = biological target: T4, PaSecA (Pseudomonas aeruginosa, UniProt Q9LCT3); assay: SecA-liposomes ion-channel activity in Xenopus oocytes (two-electrode voltage clamp); format: cell-based, P. aeruginosa; details: injected PaSecA-liposomes in oocytes
T4 construct: made in house; host or cells: E. coli BL21.19
T4 sequence (Q9LCT3 whole entry): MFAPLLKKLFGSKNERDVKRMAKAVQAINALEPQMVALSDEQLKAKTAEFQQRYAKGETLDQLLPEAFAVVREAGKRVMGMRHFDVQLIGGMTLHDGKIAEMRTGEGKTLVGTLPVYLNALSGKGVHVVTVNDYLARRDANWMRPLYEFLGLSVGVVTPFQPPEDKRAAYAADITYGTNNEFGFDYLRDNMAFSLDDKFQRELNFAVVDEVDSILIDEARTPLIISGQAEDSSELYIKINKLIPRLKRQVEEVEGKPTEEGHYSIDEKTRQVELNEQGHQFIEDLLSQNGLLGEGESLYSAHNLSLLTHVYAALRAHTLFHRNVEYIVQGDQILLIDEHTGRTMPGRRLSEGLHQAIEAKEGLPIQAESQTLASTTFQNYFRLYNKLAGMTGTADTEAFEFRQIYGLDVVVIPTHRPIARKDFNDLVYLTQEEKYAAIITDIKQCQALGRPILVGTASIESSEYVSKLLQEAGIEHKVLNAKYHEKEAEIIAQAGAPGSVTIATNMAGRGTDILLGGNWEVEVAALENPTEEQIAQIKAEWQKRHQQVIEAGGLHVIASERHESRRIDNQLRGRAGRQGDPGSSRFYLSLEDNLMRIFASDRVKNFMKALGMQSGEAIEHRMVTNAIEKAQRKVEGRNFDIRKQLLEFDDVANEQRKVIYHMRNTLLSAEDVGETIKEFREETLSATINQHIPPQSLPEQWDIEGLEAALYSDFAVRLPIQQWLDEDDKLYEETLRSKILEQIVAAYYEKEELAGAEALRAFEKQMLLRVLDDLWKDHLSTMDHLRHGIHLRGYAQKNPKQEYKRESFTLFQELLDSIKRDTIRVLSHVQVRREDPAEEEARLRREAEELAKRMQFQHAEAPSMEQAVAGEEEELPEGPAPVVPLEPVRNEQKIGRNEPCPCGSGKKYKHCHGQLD

Soluble SecA intrinsic ATPase, sequence (P10408 whole entry): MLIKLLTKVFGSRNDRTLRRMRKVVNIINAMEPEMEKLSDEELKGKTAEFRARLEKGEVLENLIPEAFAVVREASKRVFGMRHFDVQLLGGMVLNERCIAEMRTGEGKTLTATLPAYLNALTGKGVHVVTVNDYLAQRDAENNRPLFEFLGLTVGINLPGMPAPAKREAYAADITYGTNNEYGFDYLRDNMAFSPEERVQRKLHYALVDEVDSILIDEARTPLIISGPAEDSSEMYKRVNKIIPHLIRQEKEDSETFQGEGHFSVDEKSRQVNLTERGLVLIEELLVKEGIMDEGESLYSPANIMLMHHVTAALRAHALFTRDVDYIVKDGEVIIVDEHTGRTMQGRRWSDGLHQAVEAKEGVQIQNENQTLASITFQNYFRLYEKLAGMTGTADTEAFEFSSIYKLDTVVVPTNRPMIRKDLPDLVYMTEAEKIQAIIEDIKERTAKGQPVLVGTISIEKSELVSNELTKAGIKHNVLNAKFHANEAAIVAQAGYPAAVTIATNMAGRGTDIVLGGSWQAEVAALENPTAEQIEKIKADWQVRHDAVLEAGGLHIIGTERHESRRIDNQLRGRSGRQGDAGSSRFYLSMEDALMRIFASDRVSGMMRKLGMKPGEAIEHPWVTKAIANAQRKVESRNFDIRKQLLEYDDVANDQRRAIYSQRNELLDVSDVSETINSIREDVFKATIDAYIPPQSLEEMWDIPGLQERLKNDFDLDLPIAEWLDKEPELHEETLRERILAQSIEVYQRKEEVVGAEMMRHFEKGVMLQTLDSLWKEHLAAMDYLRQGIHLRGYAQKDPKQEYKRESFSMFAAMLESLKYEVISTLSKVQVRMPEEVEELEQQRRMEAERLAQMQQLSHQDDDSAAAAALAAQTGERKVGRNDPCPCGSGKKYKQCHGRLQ
T1 sequence (P10408 whole entry): as above
T3 sequence (P10408 whole entry): as above
T3 sequence (P0AGA2 whole entry, further chain): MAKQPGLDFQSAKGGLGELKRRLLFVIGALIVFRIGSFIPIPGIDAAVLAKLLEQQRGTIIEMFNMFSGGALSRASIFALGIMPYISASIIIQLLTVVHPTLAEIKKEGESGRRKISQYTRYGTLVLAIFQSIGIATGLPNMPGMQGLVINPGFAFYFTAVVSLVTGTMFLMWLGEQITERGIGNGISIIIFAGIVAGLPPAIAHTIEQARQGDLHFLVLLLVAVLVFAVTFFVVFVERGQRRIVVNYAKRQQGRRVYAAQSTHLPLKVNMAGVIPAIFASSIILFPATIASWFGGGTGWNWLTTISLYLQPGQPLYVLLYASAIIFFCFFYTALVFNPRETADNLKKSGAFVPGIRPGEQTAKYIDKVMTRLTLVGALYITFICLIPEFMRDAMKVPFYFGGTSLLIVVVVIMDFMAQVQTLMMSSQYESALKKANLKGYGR
T3 sequence (P0AG96 whole entry, further chain): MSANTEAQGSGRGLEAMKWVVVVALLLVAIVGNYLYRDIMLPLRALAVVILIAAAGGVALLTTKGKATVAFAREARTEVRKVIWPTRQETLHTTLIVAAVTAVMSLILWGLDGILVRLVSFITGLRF
T3 sequence (P0AG99 whole entry, further chain): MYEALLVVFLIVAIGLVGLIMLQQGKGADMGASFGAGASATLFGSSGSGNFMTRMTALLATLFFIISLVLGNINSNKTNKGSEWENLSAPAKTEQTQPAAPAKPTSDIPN

SMILES: Oc1ccc2c(c1)Oc1cc(O)ccc1C2C1CCCCC1 [22d]
- Potency against EcSecA relative to BsSecA (EcSecA): about 2 fold

- Cx26 channel current (Cx26; 30 mM CaCl2 added to same extracellular bath after EGTA, 2 mins incubation): 1.3 μA
- Effect on Cx26 channel activity (Cx26; CaCl2 co-injected with 5 mM EGTA): reduced the activity
- Half-time of inhibition of Cx26 channel activity (Cx26; CaCl2 in extracellular bath solution): about 1 min
- Effect on Cx26 channel activity (Cx26; co-injection with 2 mM CaCl2): slightly inhibited
SMILES: [Ca+2].[Cl-].[Cl-] [CaCl2]

- Cx26 channel current (Cx26; 10 mM EGTA in extracellular recording bath, from 2 μA): 7 μA
- Cx26 hemi-channel activity (current) (Cx26; co-injection with 5 mM EGTA, Cx26-liposomes alone around 2 μA): 7 μA
SMILES: O=C(O)CN(CCOCCOCCN(CC(=O)O)CC(=O)O)CC(=O)O [EGTA]

SMILES: O=C(O)c1c(Cl)c(Cl)c(Cl)c(Cl)c1-c1c2cc(I)c(=O)c(I)c-2oc2c(I)c(O)c(I)cc12 [RB, Rose Bengal]
- Inhibition kinetics with ATP [1]: non-competitive
- Inhibition kinetics with RB ([2]; high ATP): competitive
- Inhibition kinetics with RB ([2]; low ATP): non-competitive
- Inhibition kinetics with ATP, channel activity (PaSecA): non-competitive

From patent US9970945B2, “Compositions, methods, and assays using proteo-liposome-transfected oocytes for analyzing the structure, function, and activity of membrane proteins” (Georgia State University Research Foundation, Inc., priority 2013, dated 2018)
